Results from US12077503B2, “Substituted cyclic amides and their use as herbicides” (FMC CORPORATION, priority 2015, dated 2024).

Key:
Assay type in all cases: in vivo
[1] = system: redroot pigweed (Amaranthus retroflexus); test: Test G Pre-Emergence Protocol; settings: Amaranthus retroflexus, pre-emergence, 312 h, evaluated after 13 days; for pest or weed control at 15.625 g/ha: 15.625 g ai/ha; for pest or weed control at 15.625 g/ha / pest or weed control at 250 g/ha: read-out: Pigweed, Redroot damage rating (100=total damage to plant; 0=no damage to plant); for pest or weed control at 62.5 g/ha: 62.5 g ai/ha, 100=total damage to plant, 0=no damage to plant, read-out: plant damage rating, Pigweed, Redroot; for pest or weed control at 250 g/ha: 250 g ai/ha
How it was run: (§1)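 Scores are visual damage ratings from 0 (no damage) to 100 (total plant kill), taken 13 days after treatment. Compound was sprayed one day post-sowing at 15.625, 62.5 or 250 g/ha in 50:50 acetone/water with 0.5% Tween 20.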

[2] = system: corn (Zea mays); test: Test G Pre-Emergence Protocol; settings: Zea mays, pre-emergence, 312 h, evaluated after 13 days; for plant injury at 15.625 g/ha: 15.625 g ai/ha; for plant injury at 15.625 g/ha / plant injury at 250 g/ha: read-out: Corn damage rating (100=total damage to plant; 0=no damage to plant); for plant injury at 62.5 g/ha: 62.5 g ai/ha, 100=total damage to plant, 0=no damage to plant, read-out: plant damage rating, Corn; for plant injury at 250 g/ha: 250 g ai/ha
How it was run: as §1

[3] = system: ivy-leaved morning glory (Ipomoea hederacea); test: Test G Pre-Emergence Protocol; settings: Ipomoea, pre-emergence, 312 h, evaluated after 13 days; for pest or weed control at 15.625 g/ha: 15.625 g ai/ha, read-out: Morning-glory, Ivy-leaved damage rating (100=total damage to plant; 0=no damage to plant); for pest or weed control at 62.5 g/ha: 62.5 g ai/ha, 100=total damage to plant, 0=no damage to plant, read-out: plant damage rating, Morningglory, Ivy-leaved; for pest or weed control at 250 g/ha: 250 g ai/ha, read-out: Morningglory, Ivy-leaved damage rating (100=total damage to plant; 0=no damage to plant)
How it was run: as §1

[4] = system: giant foxtail (Setaria faberi); test: Test G Pre-Emergence Protocol; settings: Setaria faberi, pre-emergence, 312 h, evaluated after 13 days; for pest or weed control at 15.625 g/ha: 15.625 g ai/ha; for pest or weed control at 15.625 g/ha / pest or weed control at 250 g/ha: read-out: Foxtail, Giant damage rating (100=total damage to plant; 0=no damage to plant); for pest or weed control at 62.5 g/ha: 62.5 g ai/ha, 100=total damage to plant, 0=no damage to plant, read-out: plant damage rating, Foxtail, Giant; for pest or weed control at 250 g/ha: 250 g ai/ha
How it was run: as §1

[5] = system: velvetleaf (Abutilon theophrasti); test: Test G Pre-Emergence Protocol; settings: Abutilon theophrasti, pre-emergence, 312 h, evaluated after 13 days; for pest or weed control at 15.625 g/ha: 15.625 g ai/ha; for pest or weed control at 15.625 g/ha / pest or weed control at 250 g/ha: read-out: Velvetleaf damage rating (100=total damage to plant; 0=no damage to plant); for pest or weed control at 62.5 g/ha: 62.5 g ai/ha, 100=total damage to plant, 0=no damage to plant, read-out: plant damage rating, Velvetleaf; for pest or weed control at 250 g/ha: 250 g ai/ha
How it was run: as §1

[6] = system: barnyardgrass (Echinochloa crus-galli); test: Test G Pre-Emergence Protocol; settings: Echinochloa crus-galli, pre-emergence, 312 h, evaluated after 13 days; for pest or weed control at 15.625 g/ha: 15.625 g ai/ha, read-out: Barnyard grass damage rating (100=total damage to plant; 0=no damage to plant); for pest or weed control at 62.5 g/ha: 62.5 g ai/ha, 100=total damage to plant, 0=no damage to plant, read-out: plant damage rating, Barnyardgrass; for pest or weed control at 250 g/ha: 250 g ai/ha, read-out: Barnyardgrass damage rating (100=total damage to plant; 0=no damage to plant)
How it was run: as §1

[7] = system: redroot pigweed (Amaranthus retroflexus); test: Test G Post-Emergence Protocol; settings: Amaranthus retroflexus, post-emergence, 312 h; for pest or weed control at 15.625 g/ha: 15.625 g ai/ha, evaluated after 13 days (100=total damage to plant; 0=no damage to plant), read-out: Pigweed, Redroot damage rating; for pest or weed control at 62.5 g/ha: 62.5 g ai/ha, read-out: Pigweed, Redroot damage rating (100=total damage to plant; 0=no damage to plant); for pest or weed control at 62.5 g/ha / pest or weed control at 250 g/ha: evaluated after 13 days; for pest or weed control at 250 g/ha: 250 g ai/ha, read-out: damage to plant, Pigweed, Redroot (100=total damage to plant; 0=no damage to plant)
How it was run: (§2)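 Eight days post-sowing, plants received a spray of test compound (acetone/water 50:50, 0.5% Tween 20) at 15.625, 62.5 or 250 g/ha. Glasshouse regime thereafter: 24/16 °C, 14 h light, 65% humidity. Assessment after 13 days on a 0–100 damage scale.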

[8] = system: corn (Zea mays); test: Test G Post-Emergence Protocol; settings: Zea mays, post-emergence, 312 h; for plant injury at 15.625 g/ha: 15.625 g ai/ha, evaluated after 13 days (100=total damage to plant; 0=no damage to plant), read-out: Corn damage rating; for plant injury at 62.5 g/ha: 62.5 g ai/ha, read-out: Corn damage rating (100=total damage to plant; 0=no damage to plant); for plant injury at 62.5 g/ha / plant injury at 250 g/ha: evaluated after 13 days; for plant injury at 250 g/ha: 250 g ai/ha, read-out: damage to plant, Corn (100=total damage to plant; 0=no damage to plant)
How it was run: as §2

[9] = system: ivy-leaved morning glory (Ipomoea hederacea); test: Test G Post-Emergence Protocol; settings: Ipomoea, post-emergence, 312 h; for pest or weed control at 15.625 g/ha: 15.625 g ai/ha, evaluated after 13 days (100=total damage to plant; 0=no damage to plant), read-out: Morningglory, Ivy-leaved damage rating; for pest or weed control at 62.5 g/ha: 62.5 g ai/ha, read-out: Morningglory, Ivy-leaved damage rating (100=total damage to plant; 0=no damage to plant); for pest or weed control at 62.5 g/ha / pest or weed control at 250 g/ha: evaluated after 13 days; for pest or weed control at 250 g/ha: 250 g ai/ha, read-out: damage to plant, Morningglory, Ivy-leaved (100=total damage to plant; 0=no damage to plant)
How it was run: as §2

[10] = system: giant foxtail (Setaria faberi); test: Test G Post-Emergence Protocol; settings: Setaria faberi, post-emergence, 312 h; for pest or weed control at 15.625 g/ha: 15.625 g ai/ha, evaluated after 13 days (100=total damage to plant; 0=no damage to plant), read-out: Foxtail, Giant damage rating; for pest or weed control at 62.5 g/ha: 62.5 g ai/ha, read-out: Foxtail, Giant damage rating (100=total damage to plant; 0=no damage to plant); for pest or weed control at 62.5 g/ha / pest or weed control at 250 g/ha: evaluated after 13 days; for pest or weed control at 250 g/ha: 250 g ai/ha, read-out: damage to plant, Foxtail, Giant (100=total damage to plant; 0=no damage to plant)
How it was run: as §2

[11] = system: velvetleaf (Abutilon theophrasti); test: Test G Post-Emergence Protocol; settings: Abutilon theophrasti, post-emergence, 312 h; for pest or weed control at 15.625 g/ha: 15.625 g ai/ha, evaluated after 13 days (100=total damage to plant; 0=no damage to plant), read-out: Velvetleaf damage rating; for pest or weed control at 62.5 g/ha: 62.5 g ai/ha, read-out: Velvetleaf damage rating (100=total damage to plant; 0=no damage to plant); for pest or weed control at 62.5 g/ha / pest or weed control at 250 g/ha: evaluated after 13 days; for pest or weed control at 250 g/ha: 250 g ai/ha, read-out: damage to plant, Velvetleaf (100=total damage to plant; 0=no damage to plant)
How it was run: as §2

[12] = system: barnyardgrass (Echinochloa crus-galli); test: Test G Post-Emergence Protocol; settings: Echinochloa crus-galli, post-emergence, 312 h; for pest or weed control at 15.625 g/ha: 15.625 g ai/ha, evaluated after 13 days (100=total damage to plant; 0=no damage to plant), read-out: Barnyardgrass damage rating; for pest or weed control at 62.5 g/ha: 62.5 g ai/ha, read-out: Barnyardgrass damage rating (100=total damage to plant; 0=no damage to plant); for pest or weed control at 62.5 g/ha / pest or weed control at 250 g/ha: evaluated after 13 days; for pest or weed control at 250 g/ha: 250 g ai/ha, read-out: damage to plant, Barnyardgrass (100=total damage to plant; 0=no damage to plant)
How it was run: as §2

SMILES | pest or weed control at 15.625 g/ha [1] | pest or weed control at 62.5 g/ha [1] | pest or weed control at 250 g/ha [1] | plant injury at 15.625 g/ha [2] | plant injury at 62.5 g/ha [2] | plant injury at 250 g/ha [2] | pest or weed control at 15.625 g/ha [3] | pest or weed control at 62.5 g/ha [3] | pest or weed control at 250 g/ha [3] | pest or weed control at 15.625 g/ha [4] | pest or weed control at 62.5 g/ha [4] | pest or weed control at 250 g/ha [4] | pest or weed control at 15.625 g/ha [5] | pest or weed control at 62.5 g/ha [5] | pest or weed control at 250 g/ha [5] | pest or weed control at 15.625 g/ha [6] | pest or weed control at 62.5 g/ha [6] | pest or weed control at 250 g/ha [6] | pest or weed control at 15.625 g/ha [7] | pest or weed control at 62.5 g/ha [7] | further results
CN1C[C@H](c2ccc(C(F)(F)F)cc2)[C@@H](C(=O)Nc2ccccc2C(C)(C)C)C1=O (racemic) [Compound 1445] | 0% | 0% | 0% | 0% | 0% | 0% | 0% | 0% | 0% | 0% | 0% | 0% | 0% | 0% | 0% | 0% | 0% | 0% | 0% | 0% | pest or weed control at 250 g/ha [7]: 0%; plant injury at 15.625 g/ha [8]: 0%; plant injury at 62.5 g/ha [8]: 0%; plant injury at 250 g/ha [8]: 0%; pest or weed control at 15.625 g/ha [9]: 0%; pest or weed control at 62.5 g/ha [9]: 0%; pest or weed control at 250 g/ha [9]: 0%; pest or weed control at 15.625 g/ha [10]: 0%; pest or weed control at 62.5 g/ha [10]: 0%; pest or weed control at 250 g/ha [10]: 0%; pest or weed control at 15.625 g/ha [11]: 0%; pest or weed control at 62.5 g/ha [11]: 0%; pest or weed control at 250 g/ha [11]: 0%; pest or weed control at 15.625 g/ha [12]: 0%; pest or weed control at 62.5 g/ha [12]: 0%; pest or weed control at 250 g/ha [12]: 0%
CN1C[C@H](c2ccc(C(F)(F)F)cc2)[C@@H](C(=O)Nc2ccc(F)cn2)C1=O (racemic) [Compound 1450] | 0% | 0% | 80% | 0% | 0% | 0% | 0% | 0% | 0% | 40% | 70% | 90% | 0% | 0% | 0% | 10% | 30% | 70% | 0% | 0% | pest or weed control at 250 g/ha [7]: 30%; plant injury at 15.625 g/ha [8]: 0%; plant injury at 62.5 g/ha [8]: 10%; plant injury at 250 g/ha [8]: 10%; pest or weed control at 15.625 g/ha [9]: 0%; pest or weed control at 62.5 g/ha [9]: 10%; pest or weed control at 250 g/ha [9]: 20%; pest or weed control at 15.625 g/ha [10]: 0%; pest or weed control at 62.5 g/ha [10]: 30%; pest or weed control at 250 g/ha [10]: 60%; pest or weed control at 15.625 g/ha [11]: 0%; pest or weed control at 62.5 g/ha [11]: 0%; pest or weed control at 250 g/ha [11]: 0%; pest or weed control at 15.625 g/ha [12]: 0%; pest or weed control at 62.5 g/ha [12]: 10%; pest or weed control at 250 g/ha [12]: 20%
